Values of other authors, collected in patent US8753679B2, “Capsule formulation of pirfenidone and pharmaceutically acceptable excipients” (Intermune, Inc., priority 2005, dated 2014).
Like-named read-outs stand apart in the source and are kept apart here.

Experiments:
[1] = single oral dose 400 mg as four 100 mg capsules of 100% pirfenidone, 10 healthy adult males, plasma
[2] = 200 mg single dose on day 1, coated tablet with excipients, 15 patients, serum
[3] = oral 400 mg, capsule of 100% pirfenidone
[4] = test system: human mesenchymal-like cells (including lung fibroblasts, skin fibroblasts, prostate stromal cells, and renal mesangial cells)
pulmonary fibrosis = details: after 4 to 6 months on oral pirfenidone
[5] = test system: benign prostate hypertrophy; details: oral pirfenidone, older men with clinically advanced BPH

Question: With `Cc1ccc(=O)n(-c2ccccc2)c1` [Pirfenidone, 5-methyl-1-phenyl-2-(1H)-pyridone] as the compound, how does the AUC6hr [1] read?
Answer: 20.8±10.0 μg/mL-hr

Question: And the T1/2 [1]?
Answer: 2.2 ± 0.6 h

Question: What about the Tmax [1] of the same compound?
Answer: 0.9 ± 0.3 h

Question: What about the Cmax ([1]; gas chromatography) of the same compound?
Answer: 6300 ± 2500 ng/mL

Question: And the AUC4hr [2]?
Answer: 7300 ± 1600 ng·h/mL

Question: What about the T1/2 [2] of the same compound?
Answer: 3.5 ± 2.2 h

Question: And the Tmax [2]?
Answer: 1.8 ± 1.1 h

Question: And the Cmax ([2]; HPLC)?
Answer: 2700 ± 700 ng/mL

Question: And the T1/2 ([3]; ten human volunteers)?
Answer: 2.87 ± 0.22 h

Question: What about the “time at which maximum serum pirfenidone level was reached” value ([3]; ten human volunteers (FIG. 3)) of the same compound?
Answer: between one and three hours

Question: And the “effective levels relative to levels exerting pharmacologically toxic effects on the cells” value ([4]; graded concentrations in cell culture media)?
Answer: ten to twenty times lower

Question: What about the “effect on excessive cell proliferation induced by cytokine growth factors (TGF-β1, bFGF, PDGF, and EGF)” value ([4]; in vitro cell cultures) of the same compound?
Answer: pharmacologic inhibition

Question: And the “lung function (pulmonary function tests, VC, DLCO)” value (pulmonary fibrosis)?
Answer: inhibition or blocking of further deterioration in lung function

Question: What about the “response of patients based on objective criteria” value [5] of the same compound?
Answer: functional improvement

Question: What about the observed side effects (after oral administration, drowsiness, gastric nausea or photosensitivity rash) of the same compound?
Answer: relatively mild

Question: What about the serious adverse reactions (clinical investigations) of the same compound?
Answer: No serious adverse reactions
